Test results reported in patent US20050142121A1, “System for improving acceptance of tissue grafts made from embryonic stem cells” (priority 2003, published 2005).

Test system: mouse model for coronary infarction
Assay: hES-derived cardiomyocyte transplant in mouse model for coronary infarction, echocardiography
Type: in vivo
Conditions: for cardiac improvement upon grafting with hES derived cardiomyocytes (measured by echocardiography): grafts pre-treated with the agent, animals optionally pre-conditioned with allopurinol and uricase, result in words
Experimental: Cardiomyocytes were differentiated from human embryonic stem (hES) cells and purified by density gradient centrifugation on Percoll™, according to established methods (WO 03/006950). They were adapted to decrease uric acid production upon engraftment by culturing for 24 hours in standard differentiation medium (containing 20% FBS) to which had been added 50 μg/mL allopurinol, or 0.5 Units/mL human recombinant erythropoietin (EPO). Alternatively, the cells were heat shocked in standard differentiation medium (20% FBS) by incubating at 43° C. for 45 minutes, and then transferring to a 37° C. incubator 24 h prior to harvest.
Recipient mice were prepared to decrease uric acid production by the engrafted cells by daily injection of 800 μg allopurinol and/or 10 μg uricase intramuscularly for each of the 3 days before transplant.
The transplant experiments were performed using a mouse model for coronary infarction in an external research laboratory under a Research Agreement with Geron Corporation. The left anterior descending artery was ligated as follows. Mice were anesthetized in an isoflurane inhalation chamber and received intraperitoneal injection of Ketanest/Xylazine (50 mg/kg). They were then intubated and ventilated for the entire surgical procedure. Rectal temperature was maintained at 37° C. by a thermostatically regulated heating pad. One ligation with a 9.0 silk stitch was performed on the proximal 2 mm portion of the artery.
Using a 25 g needle, 0.25-2×10^6 cells (suspended in differentiation medium without serum) were injected into the demarcated area. Immediately afterwards, a chest tube (16 G Angio-cath) was inserted and the chest was closed in layers. Ventilation was maintained until there was sufficient spontaneous breathing, and extubation followed. The ventricular diameter was measured after three weeks by echocardiography. Fractional shortening ([…])≡[(diameter at diastole minus diameter at systole)÷(diameter at diastole)].

| SMILES | cardiac improvement upon grafting with hES derived cardiomyocytes (measured by echocardiography) | Fractional shortening at 3 weeks post-treatment (infarcted mice (left anterior descending artery ligation), 0.25-2x10^6 cells injected into infarct area, echocardiography after three weeks) [%] |
| --- | --- | --- |
| Oc1ncnc2[nH]ncc12 [allopurinol] | considerably enhanced | 24 |
| CC(C)Cc1ccc(C(C)C(=O)O)cc1 (stereo not drawn) [ibuprophen] | considerably enhanced | – |
